Source: patent US4581359A, “Pharmacological treatments with N-7-substituted derivatives of theophylline” (priority 1984, dated 1986)
“And” between values parts separate entries of the source, which are not always exact repeats. Identical values can stand only once. Like-named read-outs stand apart in the source and are kept apart here.

Experiments:
[1] = system: mediator-induced broncoconstriction; settings: cited from earlier work
[2] = cited from earlier work
[3] = in vivo; cited from earlier work
[4] = Theophylline (aminophylline) intravenous infusion in rabbits: blood concentration, pharmacokinetics, toxicity (Example 1); format: in vivo, female New Zealand White rabbits; settings: for visible toxicity: aminophylline 40 mg/kg over 15 minutes, three rabbits
Procedure: Analytical grade chemicals were used without further purification. All water was distilled prior to use. 250 mg/10 ml aminophylline injection (Searle Laboratories, Chicago, Ill.) was diluted with an appropriate amount of distilled water for injection. Dyphylline powder (Lemmon Company, Sellersville, Pa.) was dissolved in distilled water for injection.
A high-pressure liquid chromatographic (HPLC) system consisted of a delivery pump (M-6000A, Waters Associates, Milford, Mass.), sample injection apparatus (Model U6K, Waters Associates, Milford, Mass.), 30-cm reverse phase column (μBondapak C18, Waters Associates, Milford, Mass.), UV detector (Model 440, Waters Associates, Milford, Mass.) with wavelength of 280 nm and a dual pen recorder (Soltec Co., Encino, Calif.) which were used at ambient temperature.
The internal standard used was β-hydroxypropyl theophylline (Aldrich Chemical Co., Inc., Milwaukee, Wis.) in acetonitrile which was prepared in a 500 ml volumetric flask as a stock solution, and kept tightly sealed except during use throughout the experiment. Internal standard solution (0.4 ml) was added to an equal volume (0.4 ml) of sample to precipitate protein. After centrifuging for 10 minutes, the supernatant was injected into the HPLC. The HPLC operating conditions included a mobile phase composed of acetonitrile (6 percent V/V) in distilled water and a flow rate of 2.0 ml/min.
A typical semilogrithmic plot of a blood theophylline concentration versus time curves, for each of the three rabbits after a zero-order aminophylline infusion of 40 mg/kg over fifteen minutes, is shown in FIG. 2. The data were fitted to a two-compartment open pharmacokinetic model with first order elimination using PROPHET (PROPHET computer system, FIT FUN routine, Director, Chemical/Biological Information Handling Program, Division of Research Resources, NIH, Bethesda, MD.) The parameters generated from three rabbits were corrected for infusion time, (as described by Gibaldi) and are listed in Table II.

[5] = Fatal toxicity of theophylline, repeated aminophylline infusion in rabbits (Example 1); format: in vivo, female New Zealand White rabbits; settings: for Vd: rabbit, blood, iv
Procedure: Aminophylline (40 mg/kg) was infused into four rabbits over fifteen minutes once every two hours until the rabbits died. After the first infusion, blood concentrations of theophylline averaged about 100 mcg/ml in all four rabbits. […] In the second period total xanthine blood concentrations of theophylline averaged about 250 mcg/ml. Three rabbits died in this period with theophylline blood concentrations of about 250 mcg/ml. One rabbit died shortly after the third infusion which gave a blood theophylline concentration of about 400 mcg/ml. […] The last blood sample for each rabbit was collected immediately after the rabbit died.

[6] = Concomitant dyphylline and aminophylline in two horses: plasma concentration, blood pressure, pulse (Example 3); settings: for Cmax: peak plasma concentration of theophylline
Procedure: Two horses were administered dyphylline and aminophylline concomitantly.
The second horse was given a bolus injection of dyphylline (20 mg/kg as 100 mg/ml solution in D5W) over 15 seconds into the jugular vein. Aminophylline infusion (10 mg/kg dissolved in one liter of D5W) was started immediately and administered over 20 minutes.

[7] = Single and combined intravenous methyl xanthines in rabbits: heart rate, deaths, plasma concentrations (Example 6); format: in vivo, female rabbits; settings: for heart rate, individual drug treatment: one rabbit each, normal about 220 bpm
Procedure: T 40 mg/kg of aminophylline infused at the rate of 0.21 ml/min over 30
T/D 40 mg/kg of aminophylline infused at the rate of 0.21 ml/min over 30
T/E 40 mg/kg of aminophylline infused at the rate of 0.21 ml/min over 30
T/P 40 mg/kg of aminophylline infused at the rate of 0.21 ml/min over 30

[8] = cited from earlier work; remark: listed apart in the source
[9] = Concurrent administration of theophylline and dyphylline in rabbits: pharmacokinetics and toxicity (Example 1); settings: rabbit, iv, 40 mg/kg
Procedure: All experiments of this example were performed using female New Zealand White rabbits. These rabbits (2.4-3.6 kg) were housed in a controlled environment and allowed free access to water and food.
Before dosing with drug the rabbit ear hair was clipped and treated with hair remover lotion (sold under the trademark NAIR, Carter-Wallace, Inc., New York, N.Y.), a catheter (Quick-Cath, 20 Ga, Travenol Laboratories, Inc., Deerfield, Ill.) and sterile intermittent infusion plug were then inserted in the rabbit's ear vein for infusion. […] For each separate administration of theophylline, a suitable amount of aminophylline (40 mg/kg) was dissolved in distilled water to make 10 ml injectable solution which was administered into a rabbit's ear vein as a continuous infusion over a period of 15 minutes.
Blood samples were collected from an ear vein (in the opposite ear from the infusion) at predetermined time intervals. Before collecting each sample, the rabbit ear was treated topically with xylene to dilate the ear vein for convenient sample collection. Immediately after each blood sample was drawn, 0.4 ml of blood was transfered to the centrifuge tube and 0.4 ml of acetronitrile with appropriate internal standard was added to precipitate the protein and extract drug components. After vortexing well, the blood acetonitrile mixture was centrifuged at 3000×G for ten minutes, and 10 μl of supernatent solution was then injected into the HPLC.
The post infusion data of theophylline were fitted to a two-compartment open model using the same procedure as described above. Although samples were collected while infusion of dyphylline was continuing, only post infusion data were used for dyphylline pharmacokinetic analysis.

[10] = in vivo
Procedure: (§1) One horse was administered acetyl promazine thiamyol sodium, quaifensin, and halothane to produce general anesthesia. Dyphylline (20 mg/kg) was given as an intravenous bolus injection in less than 15 seconds and aminophylline (10 mg/kg) was given as an infusion over about 20 minutes. Plasma and cerebral spinal fluid were collected and assayed by high pressure liquid chromatography for both dyphylline and theophylline.

[11] = cited from earlier work; remark: listed apart in the source
[12] = Winter; cited from earlier work
[13] = Plasma and cerebral spinal fluid concentrations in an anesthetized horse (Example 4); settings: 0, 30 mins, 1 hour, 2 hours, 3 hours, 4 hours, 24 hours; for Cerebral spinal fluid concentration, theophylline: aminophylline 10 mg/kg + dyphylline 20 mg/kg bolus
Procedure: as §1

In the case of `Cn1c(=O)c2c(ncn2CC(=O)O)n(C)c1=O` [acephylline, 1,3-dimethylxanthinylacetic acid], the “efficacy against mediator-induced broncoconstriction” value ([1]; guinea-pigs) is given as “ineffective”, the “conversion to theophylline in the body” value ([2]; literature) is given as “not converted to theophylline in the body” and the oral absorption [3] is given as “not absorbed orally”.

For `Cn1c(=O)c2[nH]cnc2n(C)c1=O` [aminophylline], the visible toxicity [4] was “caused some visible toxicity but was not lethal”, the toxicity and death ([5]; aminophylline 40 mg/kg every two hours until death) was “All the rabbits died following a short period of severe convulsions” and the “Pulse, Horse 1” value ([6]; 10 min to 240 min as for systolic, Horse 1, time 0: 42) was 44 beats per minute and 60 beats per minute and 56 beats per minute. The “Blood pressure Mean, Horse 1” value ([6]; 10 min to 240 min as for systolic, Horse 1, time 0: 119) was 106 and 156 and 123 and the “Blood pressure D, Horse 1” value ([6]; 10 min to 240 min as for systolic, Horse 1, time 0: 156/98) was 83 and 117 and 90.

In the case of `Cn1c(=O)c2c(ncn2CCO)n(C)c1=O` [etophylline, β-hydroxyethylthophylline], the “heart rate, individual drug treatment” value [7] is given as 100 bpm, the “activity relative to theophylline” value ([1]; based on effective plasma drug concentrations) is given as 0.44 times theophylline and the “conversion to theophylline in the body” value ([2]; in vivo) is given as “not converted to theophylline in the body”.

For `CC(O)Cn1cnc2c1c(=O)n(C)c(=O)n2C` (stereo not drawn) [proxyphylline, 7-β-hydroxypropyl-theophylline], the “heart rate, individual drug treatment” value [7] is listed as “about 96 bpm”, the “plasma concentration of proxyphylline” value ([8]; combined with theophylline and dyphylline (Bracher; Werdermann)) is listed as “less than 9.0 mcg/ml” and the “plasma concentration, each drug” value ([8]; dyphylline and proxyphylline (Joos et al.), 90 min) is listed as “about 13 mcg/ml”.

With `Cn1c(=O)c2[nH]cnc2n(C)c1=O` [theophylline] the visible toxicity [4] was “one rabbit exhibited obvious signs of theophylline toxicity”, the t1/2 ([4]; aminophylline 40 mg/kg, alone, rabbits 29, 30, 32, mean, 40 mg/kg) was 6.3 h and 6.861 h and 6.30 h and the Vd ([4]; rabbit, in vivo, iv, 40 mg/kg, Vd) was 0.279 L/kg. The Vd ([4]; rabbit, in vivo, iv, 40 mg/kg, Vel (β)) was 0.562 L/kg, the half-life ([4]; rabbit, in vivo, iv, 40 mg/kg, aminophylline 40 mg/kg, alone, rabbits 29, 30, 32, mean) was 5.73 h and the concentration at 0.25 h ([4]; rabbit, in vivo, iv, 40 mg/kg, average blood concentration of theophylline immediately after stopping the infusion, Table II rabbits) was ~100 µg/mL. It also gave a Vd ([4]; rabbit, in vivo, iv, 40 mg/kg, average total volume of distribution of theophylline given alone) of ~0.59 L/kg, a concentration at 0.25 h ([4]; rabbit, in vivo, iv, 40 mg/kg, blood concentration of theophylline when the infusion was stopped) of 110 to 130 µg/mL and a k el ([4]; rabbit, in vivo, iv, 40 mg/kg, k10) of 6.75e-05 s⁻¹. The “average blood concentration of theophylline after first infusion” value ([5]; four rabbits, all survived first period, 40 mg/kg) was “about 100 mcg/ml”, the “volume of distribution (Vd), individual rabbits” value ([5]; from FIG. 3 data 1 to 2 hours, prior to second infusion, 40 mg/kg) was 0.32 L/kg and 0.33 L/kg and the “blood theophylline concentration after third infusion (rabbit died)” value ([5]; one rabbit, 40 mg/kg) was “about 400 mcg/ml”. The Vd ([5]; 40 mg/kg, from FIG. 3 data 1 to 2 hours, prior to second infusion, read-out: volume of distribution (Vd), individual rabbits) was 0.37 L/kg, the Vd ([5]; 40 mg/kg, from FIG. 3 data 1 to 2 hours, four rabbits, read-out: volume of distribution (Vd), average) was 0.35 L/kg and the “average blood concentration of theophylline, second period (three rabbits died)” value ([5]; second infusion, 40 mg/kg) was “about 250 mcg/ml”. For the same molecule, the “theophylline concentration causing convulsions and death” value ([5]; theophylline alone) was ~250 µg/mL, the Vd ([9]; in vivo, Vd(B), theophylline followed by dyphylline, b237, b241, b245, b249 rabbits 45-48, b250 mean) was 0.35 L/kg and the concentration at 0.25 h [9] was ~150 µg/mL. For the same molecule, the Vd ([9]; Vc) was 0.151 L/kg, the Vd ([9]; Vd(B)) was 0.403 L/kg and the half-life ([9]; average half-life of theophylline) was 6 to 6.5 h. For the same molecule, the Vd ([9]; average total volume of distribution of theophylline given with dyphylline) was ~0.35 L/kg, the toxicity ([7]; rabbits) was “close to lethal” and the “penetration into cerebral spinal fluid” value [10] was “penetrate into cerebral spinal fluid”. For the same molecule, the effective plasma concentration ([11]; humans) was 10 to 20 µg/mL, the “effectiveness and toxicity, dyphylline versus theophylline” value ([11]; literature) was “more effective and toxic than dyphylline” and the “effects of excessive dose or too rapid administration” value ([11]; total dose in less than about twenty minutes) was “blood pressure drop and may develop convulsions which in some instances lead to death”. The tissue distribution ([2]; literature) was “penetrate the central nervous system, to infiltrate heart tissue and to distribute to lung tissue”, the “total volume of distribution, average” value [12] was “about 0.48 L/kg” and the “Cerebral spinal fluid concentration, theophylline” value [13] was 0 µg/mL. For the same molecule, the “Cerebral spinal fluid concentration, theophylline” value ([13]; 10 mg/kg) was 5.3 µg/mL, the “Plasma concentration, theophylline” value ([13]; aminophylline 10 mg/kg over 20 min + dyphylline 20 mg/kg bolus) was 0 ng/mL and the concentration at 40 min ([6]; horse, in vivo, iv, 10 mg/kg) was 9 to 10 µg/mL. It also gave a Cmax ([6]; horse, in vivo, iv, 10 mg/kg, first horse, aminophylline 10 mg/kg over 17 minutes, dyphylline 20 mg/kg bolus at 40 minutes) of 18 µg/mL and a Cmax ([6]; horse, in vivo, iv, 10 mg/kg, second horse, dyphylline 20 mg/kg bolus then aminophylline 10 mg/kg over 20 minutes) of 35 µg/mL.
